In US10874743B2, “IRAK degraders and uses thereof” (Kymera Therapeutics, Inc., priority 2017, dated 2020):
Where two headings read alike, the source gives them in different places.

Assay: Pharmacokinetics in CD-1 mice (plasma concentrations, PK parameters)
Format: in vivo
Details: CD-1, mouse, plasma; for concentration at 5 min / concentration at 0.5 h / concentration at 1 h / concentration at 2 h / concentration at 4 h / concentration at 24 h: read-out: Concentration; for AUC(0-inf): read-out: AUCInf; for AUC(0-t): read-out: AUClast; for C0: read-out: C0; for MRT inf: read-out: MRTInf_obs; for Cmax: read-out: Cmax; for Tmax: read-out: Tmax
Method: Pharmacokinetics for I-127, I-172 and I-210 were determined in Sprague Dawley rats or CD-1 mice by dosing intravenous (IV), subcutaneous (SC) or per oral (PO) using facility SOPs and sampling plasma at required time points. Species, formulation, route of administration and time points samples are listed below for each compound.
Compounds were extracted from plasma, injected on reverse phase HPLC, eluted with a gradient from 5% to 95% acetonitrile in water and quantified by mass spectrometry with internal standard. Data are expressed in ng compound per mL of plasma.

[1] = iv, 2 mg/kg, mouse (CD1) iv 2 mg/kg, Mean
[2] = iv, 2 mg/kg, mouse (CD1) iv 2 mg/kg, individual Mouse 1-3
[3] = po, 30 mg/kg, mouse (CD1) po 30 mg/kg, Mean
[4] = po, 30 mg/kg, mouse (CD1) po 30 mg/kg, individual Mouse 4-6
[5] = sc, 30 mg/kg, mouse (CD1) sc 30 mg/kg, Mean
[6] = sc, 30 mg/kg, mouse (CD1) sc 30 mg/kg, individual Mouse 7-9

concentration at 5 min [1]: 589 ng/mL | concentration at 5 min [2]: 579 ng/mL | concentration at 0.25 h [1]: 390 ng/mL | concentration at 0.25 h [2]: 364 ng/mL | concentration at 0.5 h [1]: 283 ng/mL | concentration at 0.5 h [2]: 306 ng/mL | concentration at 1 h [1]: 193 ng/mL | concentration at 1 h [2]: 220 ng/mL | concentration at 2 h [1]: 90.8 ng/mL | concentration at 2 h [2]: 89.3 ng/mL | concentration at 4 h [1]: 26.1 ng/mL | concentration at 4 h [2]: 32.5 ng/mL | concentration at 8 h [1]: 5.19 ng/mL | concentration at 8 h [2]: 5.72 ng/mL | half-life [1]: 1.49 h | AUC(0-inf) [1]: 672 ng·h/mL | AUC(0-t) [1]: 661 ng·h/mL | C0 [1]: 726 ng/mL | MRT inf [1]: 1.5 h | half-life [2]: 1.52 h | AUC(0-inf) [2]: 714 ng·h/mL | AUC(0-t) [2]: 701 ng·h/mL | C0 [2]: 730 ng/mL | MRT inf [2]: 1.58 h | concentration at 0.25 h [3]: 30.8 ng/mL | concentration at 0.5 h [3]: 55 ng/mL | concentration at 1 h [3]: 72 ng/mL | concentration at 2 h [3]: 127 ng/mL | concentration at 2 h [4]: 177 ng/mL | concentration at 4 h [3]: 120 ng/mL | concentration at 4 h [4]: 92.5 ng/mL | concentration at 8 h [3]: 22.8 ng/mL | half-life [3]: 2.27 h | AUC(0-inf) [3]: 753 ng·h/mL | AUC(0-t) [3]: 676 ng·h/mL | Cmax [3]: 148 ng/mL | MRT inf [3]: 4.14 h | Tmax [3]: 3.33 h | half-life [4]: 2.59 h | AUC(0-inf) [4]: 917 ng·h/mL | AUC(0-t) [4]: 786 ng·h/mL | Cmax [4]: 177 ng/mL | MRT inf [4]: 4.22 h | Tmax [4]: 2 h | concentration at 0.25 h [5]: 79.3 ng/mL | concentration at 0.25 h [6]: 74.8 ng/mL | concentration at 0.5 h [5]: 85 ng/mL | concentration at 0.5 h [6]: 88.8 ng/mL | concentration at 1 h [5]: 97 ng/mL | concentration at 1 h [6]: 107 ng/mL | concentration at 2 h [5]: 95 ng/mL | concentration at 2 h [6]: 90 ng/mL | concentration at 4 h [5]: 98 ng/mL | concentration at 4 h [6]: 95.9 ng/mL | concentration at 8 h [5]: 43.5 ng/mL | concentration at 8 h [6]: 39.6 ng/mL | concentration at 24 h [5]: 2.85 ng/mL | concentration at 24 h [6]: 3.62 ng/mL | half-life [5]: 3.96 h | AUC(0-inf) [5]: 1040 ng·h/mL | AUC(0-t) [5]: 1020 ng·h/mL | Cmax [5]: 109 ng/mL | MRT inf [5]: 5.87 h
Compound: O=C1CCC(N2C(=O)c3cccc(NCCOCCOCCNCc4ccc(-n5cc(NC(=O)c6coc(-c7ccnc(NCC8CC8)c7)n6)c(C(F)F)n5)cc4)c3C2=O)C(=O)N1 (stereo not drawn) [I-210, 2-[2-(Cyclopropylmethylamino)-4-pyridyl]-N-[3-(difluoromethyl)-1-[4-[[2-[2-[2-[[2-(2,6-dioxo-3-piperidyl)-1,3-dioxoisoindolin-4-yl]amino]ethoxy]ethoxy]ethylamino]methyl]phenyl]pyrazol-4-yl]oxazole-4-carboxamide]
